Experimental data taken from patent US6203835A, “Use of hydroxy acid or a product containing the same in animal feed” (Oy Extracta Ltd., priority 1995, dated 2001).
Structures can show the parent of a compound that is named as a salt.

Legend:
[1] = Intravenous LD50 in mice; details: mouse
Description: (§1) The acting mechanism of alpha-hydroxy acids on microbes is unclear. It is plausible that these acids act as antimetabolites of the corresponding alpha-amino acids. […] After their resorption into the organism, these acids are metabolized through the same paths as the corresponding alpha-amino acids.

[2] = physchem; details: for pH of maximum buffer capacity: mixture of the acid and a salt of said acid with a strong base
Description: as §1

[3] = tested on: micro-organisms; experiment: Antimicrobial effect of hydroxy acids on micro-organisms in vitro
[4] = tested on: Salmonella infantis; experiment: Effect of hydroxy acids on growth of Salmonella infantis in vitro (turbidity 600 nm); assay type: cell-based; details: MRS medium, 37° C., 20 hours; 0.03, 0.1 and 0.3% tested
Protocol: In this example, an investigation was carried out into the sensitivity of Salmonella infantis bacterium representing the genus Salmonella to two hydroxy acids: L-2-hydroxy-3-methyl butyric acid (HMB) and L-2-hydroxy-4-methyl valeric acid (HMV). The acids were added to the MRS growth medium of the bacterium so that resulting concentrations were controlled to 0.03, 0.1 and 0.3%. The organism growth was followed at 37° C. for 20 hours by measuring the turbidity of the culture at 600 nm wavelength.

[5] = tested on: coliform bacterium strain (104); experiment: Effect of hydroxy acids on growth of coliform strain in vitro (turbidity 600 nm); assay type: cell-based; details: MRS medium, 37° C.; 0.03, 0.1 and 0.3% tested
Protocol: (§2) In the example, the sensitivity of microbes isolated from the small intestine of broiler chickens to hydroxy acids were measured under laboratory conditions. For the test, a representative test organism species from each of the bacterium groups mentioned above was chosen. Of the hydroxy acids, HMB (2-hydroxy-3-methyl butric acid) and HMV (2-hydroxy-4-methyl valeric acid) were separately tested using their a mixture of their L- and D-forms as well as the pure L-form. The acids were added to the MRS growth medium of the bacterium so that resulting concentrations were controlled to 0.03, 0.1 and 0.3%. The organism growth was followed at 37° C. by measuring the turbidity of the culture at 600 nm wavelength.

[6] = tested on: Enterococcus strain (111); experiment: Effect of hydroxy acids on growth of Enterococcus strain in vitro (turbidity 600 nm); assay type: cell-based; details: MRS medium, 37° C.; 0.03, 0.1 and 0.3% tested
Protocol: as §2

[7] = tested on: leucine amino peptidase; details: cited from earlier work

CC(C)CC(O)C(=O)O (racemic) [Na-salt of d,l-2-hydroxy-4-methyl] gave an LD50 ([1]; in vivo) of 650 mg/kg.
In the case of CC(C)C(O)C(=O)O (racemic) [d,l-2-hydroxy-3-methyl butyric acid], the pKa [2] is reported as 3.8, the “pH of maximum buffer capacity” value [2] is reported as 3.8 pH and the “number of different micro-organisms on which an antimicrobial effect was shown” value [3] is reported as “about seventy”.
With CC(C)[C@H](O)C(=O)O [HMB, L-2-hydroxy-3-methyl butyric acid] the “hydroxy acid concentration clearly inhibiting growth” value [4] was 0.1%, the “hydroxy acid concentration effectively inhibiting growth” value [5] was 0.1% and the growth-inhibiting effect [6] was “clear growth-inhibiting effect”.
With CC(C)C(O)C(=O)O (racemic) [Na-salt of d,l-2-hydroxy-3-methyl] the LD50 ([1]; iv) was 1080 mg/kg.
With CC(C)C[C@H](O)C(=O)O [HMV, L-2-hydroxy-4-methyl valeric acid] the “hydroxy acid concentration clearly inhibiting growth” value [4] was 0.1%, the “hydroxy acid concentration effectively inhibiting growth” value [5] was 0.1% and the growth-inhibiting effect [6] was “clear growth-inhibiting effect”.
For CC(C)CC(O)C(=O)O (racemic) [d,l-2-hydroxy-4-methyl valeric acid], the pKa [2] was 3.8, the “pH of maximum buffer capacity” value [2] was 3.8 pH and the “number of different micro-organisms on which an antimicrobial effect was shown” value [3] was “about seventy”.
In the case of CC(C)CC(O)C(=O)O (stereo not drawn) [2-hydroxy-4-methyl valeric acid], the “inhibition of leucine amino peptidase” value [7] is given as “competitive inhibitor”.
